From publication PMC4949556, “Subtle Structural Differences Trigger Inhibitory Activity of Propafenone Analogues at the Two Polyspecific ABC Transporters: P‐Glycoprotein (P‐gp) and Breast Cancer Resistance Protein (BCRP)” (Chemmedchem, 2016)
“Also recorded” adds a separate entry of the source.

What was measured:
Format in all cases: cell-based
BCRP = molecular target: T1, BCRP (Homo sapiens, UniProt Q9UNQ0); assay: BCRP inhibition: steady-state mitoxantrone accumulation in BCRP-expressing PLB985 cells (flow cytometry); settings: for IC50: BCRP IC50, mitoxantrone 7 μM, PLB985 BCRP cells, mean±SD, at least n=3 (11 a n=2); for Hill coefficient BCRP: Hill coefficient of IC50 measurement, mean ± SD of n experiments; for in vitro classification as BCRP inhibitor: IC50 below 10 μM considered active; for inhibition at 20 min, 100 µM: human, PLB985 cells stably expressing BCRP, pH 7.4, probe mitoxantrone (7 µM), 100µM compound, compared to positive control Ko143 (1µM) set as 100%, mean of 3 independent experiments, read-out: In vitro activity (% inhibition), BCRP, Table S1
T1 construct: expressed in transfected cells; host or cells: PLB985 human myeloid leukemia cells stably expressing BCRP (gift of B. Sarkadi and K. Nemet, Budapest)
T1 sequence (Q9UNQ0 whole entry): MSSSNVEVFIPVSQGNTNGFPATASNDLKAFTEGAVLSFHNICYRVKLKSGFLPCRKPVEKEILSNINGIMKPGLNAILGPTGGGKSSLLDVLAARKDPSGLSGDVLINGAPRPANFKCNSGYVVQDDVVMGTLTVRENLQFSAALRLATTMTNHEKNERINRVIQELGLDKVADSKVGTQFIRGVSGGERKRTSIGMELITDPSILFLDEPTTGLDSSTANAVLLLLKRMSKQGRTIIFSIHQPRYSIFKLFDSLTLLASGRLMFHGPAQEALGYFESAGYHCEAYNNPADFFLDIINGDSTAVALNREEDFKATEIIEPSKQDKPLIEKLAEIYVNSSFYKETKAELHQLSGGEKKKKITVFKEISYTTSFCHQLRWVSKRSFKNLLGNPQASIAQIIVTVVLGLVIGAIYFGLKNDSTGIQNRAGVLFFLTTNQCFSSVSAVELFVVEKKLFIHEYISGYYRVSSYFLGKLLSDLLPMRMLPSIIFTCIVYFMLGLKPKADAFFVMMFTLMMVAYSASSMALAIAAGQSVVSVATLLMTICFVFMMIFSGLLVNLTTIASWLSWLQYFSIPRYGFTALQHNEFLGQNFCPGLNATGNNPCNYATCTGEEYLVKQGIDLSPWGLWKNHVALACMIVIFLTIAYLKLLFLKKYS
Procedure: (§1) P‐gp and BCRP inhibitory activity was assessed by implementing an intracellular accumulation assay of daunorubicin or mitoxantrone in cells overexpressing P‐gp or BCRP, respectively. In a first run, the effect of compounds 5, 6, 10, 11, and 16 (Figure 2) at 100 μM final concentration was tested (Figure 3). All compounds showing an inhibitory effect of more than 50 % compared with full inhibition by the known inhibitors of P‐gp (verapamil) and BCRP (Ko143) were further processed, and IC50 values were determined (IC50 curves and Hill coefficients are available in Figure S1 and Table S3 in the Supporting Information). […] For P‐gp, nine compounds were classified as inhibitors (5 a, 5 b, 6 a, 10 a, 10 b, 11 b, 16 a, 16 b, 16 c).
(§2) Cell culture: The human myeloid leukemia PLB985 parental and stably expressing BCRP cell lines31 were kindly provided by B. Sarkadi (Institute of Enzymology, Research Centre for Natural Sciences, Budapest, Hungary) and K. Nemet (Creative Cell Ltd., Budapest, Hungary). Both cell lines were cultured in RPMI 1640 supplemented with 10 % FBS and 100 IU mL^−1 of penicillin and streptomycin. The human T‐lymphoblast cell line CCRF VCR1000, overexpressing P‐gp, was obtained by stepwise selection of CCRF‐CEM in vincristine‐containing medium32 and was kindly provided by V. Gekeler (Altana‐Pharma formerly Byk‐Gulden, Konstanz, Germany). CCRF VCR1000 cells were cultured in RPMI 1640 medium containing 20 % FBS and were treated regularly with vincristine (1 μg mL^−1) for about 72 h, followed by centrifugation (300 g, 5 min, RT) and resuspension in normal culture medium. All cell lines were maintained at 37 °C in an atmosphere containing 5 % CO2 with 95 % relative humidity.
(§3) Steady‐state accumulation experiments: For BCRP and P‐gp inhibition studies, the steady‐state accumulation of mitoxantrone (7 μM) and daunorubicin (3 μM), respectively, was performed as previously described.33 Briefly, cells were harvested, pelleted (300 g, 5 min, 4 °C), diluted to a concentration of 12×10^6 cells mL^−1 in HPMI (10 mM Hepes, 120 mM NaCl, 5 mM KCl, 0.4 mM MgCl2, 0.04 mM CaCl2, 10 mM glucose, 10 mM NaHCO3, 5 mM Na2HPO4, pH 7.4 with NaOH) and kept on ice for further processing. For each data point, the cell suspension (25 μL) was preincubated for 5 min at 37 °C with 2 % DMSO (25 μL) in HPMI alone (DMSO control) or containing different concentrations of test compound solutions. Thereafter, cells were preloaded with daunorubicin (50 μL) or mitoxantrone (50 μL) for 30 or 20 min at 37 °C, respectively, to reach a final concentration of 3 or 7 μM, respectively. […] Preloading was stopped by chilling cells on ice for 5 min followed by the addition of 400 μL ice‐cold PBS. Cells were pelleted (300 g, 5 min, 4 °C), the supernatant was discarded, and the cell pellet was resuspended in ice‐cold PBS (150 μL). Until measurement, cells were kept on ice and in the dark. Immediately before cell fluorescence measurement by flow cytometry (BD Accuri C6 and BD FACSCalibur, Becton Dickinson, San Jose, CA, USA; MACSQuant, MiltenyiBiotec GmbH, BergischGladbach, Germany), 50 μL of 4′,6‐diamidin‐2‐phenylindole solution (DAPI, 4 μg mL^−1 in PBS) was added to gate out dead cells. 100 μM verapamil and 1 μM Ko143 were used as positive controls for P‐gp and BCRP inhibition, respectively. […]

P-gp = molecular target: T2, P-gp (Homo sapiens, UniProt P08183); assay: P-gp inhibition: steady-state daunorubicin accumulation in P-gp-overexpressing CCRF VCR1000 cells (flow cytometry); settings: for Hill coefficient P-gp: Hill coefficient of IC50 measurement, mean ± SD of n experiments; for in vitro classification as P-gp inhibitor: IC50 below 10 μM considered active; for IC50: daunorubicin 3 μM, CCRF VCR1000 cells, mean±SD, at least n=3; for fold higher IC50 value for BCRP than for P-gp: ratio IC50 BCRP / IC50 P-gp; for inhibition at 30 min, 100 µM: human, CCRF VCR1000 cells overexpressing P-gp, pH 7.4, probe daunorubicin (3 µM), 100µM compound, compared to positive control verapamil (100µM) set as 100%, mean of 3 independent experiments, read-out: In vitro activity (% inhibition), P-gp, Table S2
T2 construct: was obtained by stepwise selection of CCRF‐CEM in vincristine‐containing medium; endogenous in cells; host or cells: CCRF VCR1000 (vincristine-selected subline of CCRF-CEM human T-lymphoblasts; gift of V. Gekeler)
T2 sequence (P08183 whole entry): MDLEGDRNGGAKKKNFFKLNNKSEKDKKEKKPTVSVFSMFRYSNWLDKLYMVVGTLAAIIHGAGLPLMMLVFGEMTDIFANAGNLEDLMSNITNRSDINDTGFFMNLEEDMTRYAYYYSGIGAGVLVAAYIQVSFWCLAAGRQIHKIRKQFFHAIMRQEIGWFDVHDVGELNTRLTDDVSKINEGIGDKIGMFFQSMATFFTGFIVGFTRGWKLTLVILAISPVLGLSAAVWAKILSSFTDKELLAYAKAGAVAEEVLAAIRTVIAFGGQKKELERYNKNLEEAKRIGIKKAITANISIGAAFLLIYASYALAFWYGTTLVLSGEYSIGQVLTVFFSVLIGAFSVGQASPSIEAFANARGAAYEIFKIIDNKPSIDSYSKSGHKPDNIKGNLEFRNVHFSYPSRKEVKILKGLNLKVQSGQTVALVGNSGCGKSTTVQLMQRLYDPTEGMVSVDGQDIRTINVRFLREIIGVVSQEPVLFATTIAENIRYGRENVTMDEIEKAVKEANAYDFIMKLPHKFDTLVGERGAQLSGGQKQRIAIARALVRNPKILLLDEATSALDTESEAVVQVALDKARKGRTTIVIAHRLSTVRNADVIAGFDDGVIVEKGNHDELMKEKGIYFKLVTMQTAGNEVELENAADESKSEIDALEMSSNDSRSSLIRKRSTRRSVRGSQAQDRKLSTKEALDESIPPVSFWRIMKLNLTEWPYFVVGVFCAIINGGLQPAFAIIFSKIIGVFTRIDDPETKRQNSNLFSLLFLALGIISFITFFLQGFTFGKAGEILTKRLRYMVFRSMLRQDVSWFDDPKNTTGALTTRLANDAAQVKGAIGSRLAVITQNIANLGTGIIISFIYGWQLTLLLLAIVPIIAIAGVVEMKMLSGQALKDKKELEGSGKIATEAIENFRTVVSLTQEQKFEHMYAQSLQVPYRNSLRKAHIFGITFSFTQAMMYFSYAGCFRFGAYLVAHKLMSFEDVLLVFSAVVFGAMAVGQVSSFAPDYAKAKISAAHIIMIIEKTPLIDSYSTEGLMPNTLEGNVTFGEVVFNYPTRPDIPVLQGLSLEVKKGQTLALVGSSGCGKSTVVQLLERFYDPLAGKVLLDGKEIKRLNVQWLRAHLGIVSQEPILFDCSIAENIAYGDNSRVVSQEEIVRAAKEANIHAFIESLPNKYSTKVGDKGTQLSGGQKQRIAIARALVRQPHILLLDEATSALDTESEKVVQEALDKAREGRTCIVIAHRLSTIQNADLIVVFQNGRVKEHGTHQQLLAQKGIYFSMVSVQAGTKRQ
Procedure: as §1, §2, §3

P-gp / BCRP = molecular target: T3, P-gp / BCRP (Homo sapiens, UniProt Q9UNQ0); assay: BCRP inhibition: steady-state mitoxantrone accumulation in BCRP-expressing PLB985 cells (flow cytometry); settings: human, pH 7.4, probe daunorubicin (3 µM) for P-gp; mitoxantrone (7 µM) for BCRP; IC50 P-gp / IC50 BCRP; read-out: selectivity index (SI) P-gp/BCRP
T3 construct: expressed in transfected cells; host or cells: PLB985 human myeloid leukemia cells stably expressing BCRP (gift of B. Sarkadi and K. Nemet, Budapest)
T3 sequence (Q9UNQ0 whole entry): as the sequence (Q9UNQ0 whole entry) above
Procedure: as §1, §2, §3

Row | SMILES | IC50 (BCRP) [µM] | Hill coefficient BCRP (BCRP) | in vitro classification as BCRP inhibitor (BCRP) | Hill coefficient P-gp (P-gp) | in vitro classification as P-gp inhibitor (P-gp) | IC50 (P-gp) [µM] | fold higher IC50 value for BCRP than for P-gp (P-gp) | inhibition at 20 min, 100 µM (BCRP) [%] | selectivity ratio (P-gp / BCRP) | inhibition at 30 min, 100 µM (P-gp) [%] | factor more active at P-gp than methoxy analogue 6 b (P-gp; P-gp, compared with 6 b) | fold more active at P-gp than analogue 11 a (P-gp; P-gp, compared with 11 a) | fold lower IC50 value for BCRP than for P-gp (BCRP; ratio IC50 P-gp / IC50 BCRP) [fold]
1 | COc1ccc(C(=O)CCc2ccccc2)c(OCCNC(=O)C2CCCN2)c1 (stereo not shown) [Compound 10 b] | 2.9 ± 0.5 | 1.0±0.1 | inhibitors | 1.1±0.1 | inhibitors | 1 ± 0.2 | more than 2.6 fold | – | – | – | – | – | –
2 | CC(=O)c1ccccc1OCCNC(=O)C1CCCN1 (stereo not shown) [Compound 10 c, N ‐(2‐(2‐acetylphenoxy)ethyl)pyrrolidine‐2‐carboxamide] | – | – | noninhibitors | 2.2±0.4 | noninhibitors | 34.8 ± 1.8 | – | 24 | – | – | – | – | –
3 | O=C(CCc1ccccc1)c1ccccc1OCC(O)CNC(=O)C1CCCN1 (stereo not shown) [Compound 5 a, N ‐(2‐hydroxy‐3‐(2‐(3‐phenylpropanoyl)phenoxy)propyl)pyrrolidine‐2‐carboxamide] | 16.1 | 1.4±0.3 | borderline activity | 1.3±0.2 | inhibitors | 2.1 ± 0.4 | more than fivefold | – | 0.13 | – | – | – | –
4 | CC(C)NCC(O)COc1ccccc1C(=O)CCc1ccccc1 (stereo not shown) [Compound 16 a, 1‐(2‐(2‐Hydroxy‐3‐(isopropylamino)propoxy)phenyl)‐3‐phenyl‐propan‐1‐one] | – | – | – | 0.9±0.1 | inhibitors | 0.3 | more than fivefold | 53 | – | – | – | – | –
5 | CC(=O)c1ccccc1OCC(O)CNC(=O)C1CCCN1 (stereo not shown) [Compound 5 c, N ‐(3‐(2‐acetylphenoxy)‐2‐hydroxypropyl)pyrrolidine‐2‐carboxamide] | – | – | noninhibitors | 1.9±0.2 | noninhibitors | 58.7 ± 9.2 | – | 20 | – | – | – | – | –
6 | CC(NCC(O)COc1ccccc1C(=O)CCc1ccccc1)C(F)F (stereo not shown) [Compound 16 c, 1‐(2‐(3‐((1,1‐Difluoropropan‐2‐yl)amino)‐2‐hydroxypropoxy)phenyl)‐3‐phenylpropan‐1‐one] | 4.9 ± 1.1 | 1.0±0.2 | inhibitors | 1.5±0.1 | inhibitors | 0.9 ± 0.2 | more than fivefold | – | – | – | – | – | –
7 | CC(=O)c1ccccc1OCCN1CC(=O)N2CCCC2C1=O (stereo not shown) [Compound 11 c, 2‐(2‐(2‐Acetylphenoxy)ethyl)hexahydropyrrolo[1,2‐a]pyrazine‐1,4‐dione] | – | – | noninhibitors | – | noninhibitors | – | – | 37 | – | 8 | – | – | –
8 | O=C(CCc1ccccc1)c1ccccc1OCC(O)CN1CC(=O)N2CCCC2C1=O (stereo not shown) [Compound 6 a, 2‐(2‐Hydroxy‐3‐(2‐(3‐phenylpropanoyl)phenoxy)propyl)‐hexahydropyrrolo[1,2‐a]pyrazine‐1,4‐dione] | 5.8 ± 1 | 0.9±0.1 | inhibitors | 2.6±0.4 | inhibitors | 1.6 ± 0.6 | more than 2.6 fold | – | 0.27 | – | 7 | tenfold | –
9 | CC(=O)c1ccccc1OCC(O)CN1CC(=O)N2CCCC2C1=O (stereo not shown) [Compound 6 c, 2‐(3‐(2‐Acetylphenoxy)‐2‐hydroxypropyl)hexahydropyrrolo[1,2‐a]‐pyrazine‐1,4‐dione] | – | – | noninhibitors | – | noninhibitors | – | – | 33 | – | 4 | – | – | –
10 | COc1ccc(C(=O)CCc2ccccc2)c(OCC(O)CNC(=O)C2CCCN2)c1 (stereo not shown) [Compound 5 b, N‐(2‐hydroxy‐3‐(5‐methoxy‐2‐(3‐phenylpropanoyl)phenoxy)propyl)‐pyrrolidine‐2‐carboxamide] | 3.1 ± 0.5 | 1.4±0.1 | inhibitors | 1.3±0.2 | inhibitors | 2.2 ± 0.6 | 1.4 fold | – | – | – | – | – | –
11 | O=C(CCc1ccccc1)c1ccccc1OCCNC(=O)C1CCCN1 (stereo not shown) [Compound 10 a, N ‐(2‐(2‐(3‐phenylpropanoyl)phenoxy)ethyl)pyrrolidine‐2‐carboxamide] | 3.3 ± 0.6 | 1.3±0.2 | inhibitors | 1.6±0.2 | inhibitors | 1.3 ± 0.1 | more than 2.6 fold | – | – | – | – | – | –
12 | COc1ccc(C(=O)CCc2ccccc2)c(OCC(O)CN2CC(=O)N3CCCC3C2=O)c1 (stereo not shown) [Compound 6 b, 2‐(2‐Hydroxy‐3‐(5‐methoxy‐2‐(3‐phenylpropanoyl)phenoxy)propyl)‐hexahydropyrrolo[1,2‐a]pyrazine‐1,4‐dione] | 3.8 ± 0.6 | 1.1±0.2 | inhibitors | 1.5±0.2 | borderline inhibitory activity | 11 ± 1 | – | – | 2.82 | – | – | – | 2.9
13 | O=C(CCc1ccccc1)c1ccccc1OCCN1CC(=O)N2CCCC2C1=O (stereo not shown) [Compound 11 a, 2‐(2‐(2‐(3‐Phenylpropanoyl)phenoxy)ethyl)hexahydropyrrolo[1,2‐a]‐pyrazine‐1,4‐dione] | 21.5 ± 2.9 | 1.0±0.0 | weak inhibitor | 1.8±0.4 | borderline inhibitory activity; also recorded: borderline inhibitor | 13.9 ± 1.5 | 1.5 fold | – | – | – | – | – | –
14 | CC(CF)NCC(O)COc1ccccc1C(=O)CCc1ccccc1 (stereo not shown) [Compound 16 b, 1‐(2‐(3‐((1‐Fluoropropan‐2‐yl)amino)‐2‐hydroxypropoxy)phenyl)‐3‐phenylpropan‐1‐one] | 5.5 ± 0.9 | 1.6±0.2 | inhibitors | 1.3±0.2 | inhibitors | 0.5 ± 0.1 | more than fivefold | – | – | – | – | – | –
